Test system: A375 human melanoma xenografts
Experiment: Example 7 efficacy study in A375 human melanoma xenografts (tumor volume, T/C, TGI)
Format: in vivo, BALB/c nude mice
Settings: 10 mg/kg, p.o.; for T/C / TGI / Tumor Size on PG-D14 (mean ± SEM): PG-D14
Experimental: For efficacy study, agents were tested in the A375 human melanoma xenografts. Compound 118, Compound 156, and Compound 180 were administered to BALB/c nude mice bearing A375 xenografts from day 0 and dosed p.o. twice per day (BID). Compound 141 was administered from day 0 and dosed p.o. twice per day (BID) or dosed p.o. daily (QD) from day 1. Compound 141, Compound 118, Compound 156, and Compound 180 were dosed at 10 mg/kg for 14 days. The known BRAF inhibitor Dabrafenib was used as a positive control. Dabrafenib was administered from day 1 and dosed p.o. daily (QD) for 14 days and dosed at 100 mg/kg.
The A375 tumor cells were maintained in vitro in DMEM medium supplemented with […] and 1% Penicillin-Streptomycin at 37° C. in an atmosphere of 5% CO2 in air. The tumor cells were routinely subcultured twice weekly. The cells growing in an exponential growth phase were harvested and counted for tumor inoculation.
Each mouse was inoculated subcutaneously at the right flank with A375 tumor cells (5×10^6) in 0.2 mL of PBS with Matrigel (PBS: Matrigel=1:1) supplemented for tumor development. Animals were grouped when the average tumor volume reached 246 mm^3 for efficacy study and 390 mm^3 for PKPD study on day 17 after tumor inoculation. The test articles administration and the animal numbers in each group are shown in the above experimental tables.
Prior to the onset of drug treatment, mice were measured for tumor size in two dimensions using a caliper, and the tumor volume (mm^3) was calculated using formula V=0.5 a×b^2 where a and b are the long and short diameters of the tumor in mm, respectively. Mice were randomized into different treatment groups based on the tumor volume.
The major endpoint was to see if the tumor growth could be delayed or mice could be cured. The tumor size was then used for calculations of T/C value. The T/C value (in percent) is an indication of antitumor effectiveness; T and C are the mean volumes of the treated and control groups, respectively on specified day.
TGI was calculated for each group using the formula: TGI (%)=[1−(Ti−T0)/(Ci−C0)]×100; Ti is the average tumor volume of a treatment group on a given day, T0 is the average tumor volume of the treatment group on the day of treatment start, Ci is the average tumor volume of the vehicle control group on the same day with Ti, and C0 is the average tumor volume of the vehicle group on the day of treatment start.

SMILES	T/C (BID × 14 days) [%]	TGI (BID × 14 days) [%]	Tumor Size on PG-D14 (mean ± SEM) (BID × 14 days) [mm^3]	Tumor Volume (mean ± SEM) (BID × 14 days, day 0) [mm^3]	Tumor Volume (mean ± SEM) (BID × 14 days, day 3) [mm^3]	Tumor Volume (mean ± SEM) (BID × 14 days, day 7) [mm^3]	Tumor Volume (mean ± SEM) (BID × 14 days, day 10) [mm^3]	Tumor Volume (mean ± SEM) (BID × 14 days, day 14) [mm^3]	T/C (QD × 14 days) [%]	TGI (QD × 14 days) [%]	Tumor Size on PG-D14 (mean ± SEM) (QD × 14 days) [mm^3]	Tumor Volume (mean ± SEM) (QD × 14 days, day 0) [mm^3]	Tumor Volume (mean ± SEM) (QD × 14 days, day 3) [mm^3]	Tumor Volume (mean ± SEM) (QD × 14 days, day 7) [mm^3]	Tumor Volume (mean ± SEM) (QD × 14 days, day 10) [mm^3]	Tumor Volume (mean ± SEM) (QD × 14 days, day 14) [mm^3]
CCN(C)S(=O)(=O)Nc1ccc(F)c(Oc2ccc3ncn(C4CC5(CCN(C6CC7(C6)CN(c6cc8c(cc6F)c(N6CCC(=O)NC6=O)nn8C)C7)CC5)C4)c(=O)c3c2)c1C#N (stereo not drawn) [Compound 141, 6-[2-cyano-3-[[ethyl(methyl)sulfamoyl]amino]-6-fluoro-phenoxy]-3-[7-[2-[3-(2,4-dioxohexahydropyrimidin-1-yl)-5-fluoro-1-methyl-indazol-6-yl]-2-azaspiro[3.3]heptan-6-yl]-7-azaspiro[3.5]nonan-2-yl]-4-oxo-quinazoline]	2.4	119.8	32 ± 4	246 ± 15	181 ± 15	109 ± 13	59 ± 6	32 ± 4	3.0	119.0	40 ± 6	246 ± 12	275 ± 9	138 ± 13	81 ± 9	40 ± 6
CCN(C)S(=O)(=O)Nc1ccc(F)c(Oc2ccc3ncn(C4CC5(CCN(C6CCN(c7cc8c(cc7F)c(N7CCC(=O)NC7=O)nn8C)CC6)CC5)C4)c(=O)c3c2)c1C#N [Compound 156, 6-[2-cyano-3-[[ethyl(methyl)sulfamoyl]amino]-6-fluoro-phenoxy]-3-[7-[1-[3-(2,4-dioxohexahydropyrimidin-1-yl)-5-fluoro-1-methyl-indazol-6-yl]-4-piperidyl]-7-azaspiro[3.5]nonan-2-yl]-4-oxo-quinazoline]	2.6	119.6	34 ± 5	246 ± 13	203 ± 16	111 ± 4	68 ± 3	34 ± 5								
